Data: PMC12378621, “Benzo-ring modification on Malaria Box hit MMV008138: effects on antimalarial potency and microsomal stability” (RSC Medicinal Chemistry, 2025)
Values joined by “and” are separate entries in the source; they are usually repeats but may differ in a detail not shown here. Equal entries are not always repeated. Where two headings read alike, the source gives them in different places.

Assays:
[1] = system: P. falciparum (Dd2 strain); experiment: ABS P. falciparum growth inhibition, SYBR Green I assay, 72 h endpoint; type: cell-based, Plasmodium falciparum; conditions: Plasmodium falciparum, DD2; control in growth inhibition / IPP rescue assays; read-out: EC50 of MMV008138 used as control
Protocol: Parasites were maintained in O-positive human erythrocytes (Grifols, Memphis, TN, USA) at 5% hematocrit in RPMI 1640 medium supplemented with 5 g L^−1 Albumax I (Gibco Life Technologies), 2 g L^−1 glucose (Sigma-Aldrich), 2.3 g L^−1 sodium bicarbonate (Sigma-Aldrich), 370 μM hypoxanthine (Sigma-Aldrich), 25 mM HEPES, and 20 mg L^−1 gentamicin (Gibco Life Technologies). The parasites were kept at 37 °C under reduced-oxygen conditions (5% CO2, 5% O2, and 90% N2).
[…]. MMV008138 (1) was used as control. The percentage of growth was normalized to that of untreated control parasites in the presence of 0.1% DMSO. Background determinations were made using uninfected erythrocytes. Two or more independent experiments in duplicate were performed. The EC50 values were calculated with GraphPad Prism 9 (GraphPad Software Ltd.) using nonlinear regression curve fitting with variable slope (four parameters) and represent the average and their standard error of the mean (S.E.M.). To assess whether 20a–e specifically targeted the apicoplast, the recovery of growth in the presence of inhibitor and isopentenyl diphosphate (IPP) was performed as described previously.[8] Briefly, parasites were grown in the presence or absence of 200 μM IPP along with a serial dilution (10 μM to 0.01 μM) or single concentration (10 or 20 μM) of drug. […] All conditions were set in 96-well half area plates using highly synchronous ring-stage parasite cultures (100 μL per well at 1% hematocrit and 1% parasitemia) and incubated for 72 h under normal culture conditions. Parasite growth was measured by the SYBR green I assay.

P. vivax IspD = system: P. vivax IspD; parameters: method as in PMID 26783558; conditions: cited from earlier work
in vivo = conditions: mouse
Protocol: 3. Pharmacokinetics of 1 in mice
Pharmacokinetic analysis of 1 in mice was performed by Pharmaron (Beijing, China). Three mice each (23 ± 1 g) were used for oral (40 mg/kg, gavage, conscious) and for IV (10 mg/kg, lateral tail vein with anesthesia) administration. The vehicle for both routes wa s 20% DMSO, 60% PEG400 and 20% SBE-β-CD (30% w/v) in water. Stock concentrations were 4 mg/mL (both oral and IV respectively), and mice were dosed at 10.0 and 2.5 mL/kg (oral and IV respectively).
Quantitation was performed by triple-quad LC-MS.

[2] = system: Plasmodium berghei ANKA expressing luciferase (PbGFP-Luccon); experiment: In vivo efficacy in P. berghei-infected mice (luminescence on Day 7)
Protocol: 2. In vivo efficacy studies of 1 (NYU) in P. berghei-infected mice (po and iv) Efficacy of 1 in P. berghei-infected mice was assessed at the Anti-Infectives Core Facility, Department of Microbiology, Grossman School of Medicine, New York University.
A. Oral Administration Protocol
Three groups of five female Swiss Webster mice weighing 25 to 30 g were used for vehicle […]
berghei ANKA expressing luciferase (PbGFP-Luccon) obtained from a donor infected mouse.10 […]
2 to 6 and imaged on day 7.
Figure S1. Dosing and imaging timeline of P. berghei-infected mice. […]
Day 7 as described in the text.
The vehicle for all groups was 0.5% (hydroxypropyl)methyl cellulose, 0.5% Tween-80.
For the surviving mice, o n day 7 after infection, mice were anesthetized by inhalation of isofluorane and injected via i.p. with 150 mg/kg of luciferase substrate dissolved in PBS (D-Luciferin Potassium Salt , Gold Biotechnology ).
Mice were imaged 5 to 10 min after inj ection of luciferin using an IVIS imager (Lumina II In Vivo Imaging System; Perkin -Elmer). The data acquisition and analysis were performed with LivingImage (Xenogen). Accumulated light intensity was measured in each mouse to determine the baseline infection levels before treatment .
(§1) (1 picture or pasted object on this page, not shown here)
B. IV Administration Protocol
One group of four female Swiss Webster mice weighing 25 to 30 g were used for vehicle control, and groups of five mice were used for 1 treatment (IV, 2 x 30 mg/kg/d) and the positive […]
On Day 0, mice were infected via intraperitoneal (i.p.) […]
from a donor infected mouse. 10 As shown below in Figure S2 (and legend), mice were treated […]
Figure S2. Dosing and imaging timeline of P. berghei-infected mice. Vehicle and 1 (30 mpk) treatments were administered IV twice -daily on Days 2-6. […]
administered i .p. once-daily. Mice were imaged on Day 7, as described in the text.
The vehicle for this study was 30%PEG, 40% Captisol (30%w/v solution).
Table S2. Luminescence Data after background subtraction for IV dosing of Vehicle, 1, and IP […]
Table S9. Concentration of 20c vs time in mice. […]
Figure S6. Dosing and imaging timeline of P. berghei-infected mice. […]

in vitro = conditions: male, mouse, microsomes
Protocol: Metabolic stability of 1 was studied in pooled male mouse liver microsomes (final concentration 0.5 mg/mL, 5 mM MgCl 2, 100 mM phosphate buffer). The final concentration of test […]
The mixture was pre-warmed 37°C for 5 min before addition of 50 μL of 10 mM NADPH solution at the final concentration of 1 mM and carried out at 37°C. 50 μL of ultra-pure H2O was used instead of NADPH solution in the […]
negative control. […] Drug […]
concentrations were determined using triple quad LC-MS (Table S5).
as §1

[3] = system: P. falciparum (Dd2 strain); parameters: method as in PMID 25754494; conditions: drug at 2.5 μM; previously reported; cited from earlier work
P. falciparum IspD = system: P. falciparum IspD; parameters: method as in PMID 26783558; conditions: cited from earlier work
[4] = system: P. falciparum (Dd2 strain); conditions: SYBR Green I, 72 h endpoint; previously reported; read-out: Dd2 strain P. falciparum growth inhibition EC50; cited from earlier work
[5] = iv, 10 mg/kg, plasma concentration
[6] = po, 40 mg/kg, plasma concentration
[7] = Table S2, Days 2-6, imaged Day 7, Cmpd 1 30 mg/kg 2 x daily IV, CQ 20 mg/kg 1 x daily i.p.

In the case of `O=C(O)[C@@H]1Cc2c([nH]c3ccccc23)[C@@H](c2ccc(Cl)cc2Cl)N1` [Compound 1, reference compound], the EC50 [1] is given as 170 ± 10 nM, the IC50 (P. vivax IspD) is given as 310 nM and the AUC(0-inf) (in vivo; iv, 10 mg/kg) is given as 38.4 ± 3.8 µM·h. It also gave an AUC(0-t) (in vivo; iv, 10 mg/kg) of 36.1 ± 3.6 µM·h, a C0 (in vivo; iv, 10 mg/kg) of 86 ± 6.6 µM and a Vd (in vivo; iv, 10 mg/kg) of 3.5 ± 0.43 L/kg. For the same molecule, the clearance (in vivo; iv, 10 mg/kg) was 12.1 ± 1.3 mL/min/kg, the tlast (in vivo; iv, 10 mg/kg) was 24 h and the concentration at 24 h (in vivo; iv, 10 mg/kg, Cmin) was 0.164 ± 0.017 µM. The concentration at 0.083 h (in vivo; [5]) was 58.6 ± 5.5 µM, the concentration at 0.25 h (in vivo; [5]) was 27.1 ± 3.7 µM and the concentration at 0.5 h (in vivo; [5]) was 14.8 ± 1.9 µM. For the same molecule, the concentration at 1 h (in vivo; [5]) was 4.8 ± 1.7 µM, the concentration at 2 h (in vivo; [5]) was 1.3 ± 0.4 µM and the concentration at 4 h (in vivo; [5]) was 0.66 ± 0.04 µM. It also gave a concentration at 8 h (in vivo; [5]) of 0.51 ± 0.03 µM, a concentration at 24 h (in vivo; [5]) of 0.16 ± 0.02 µM and a half-life (in vivo; iv, 10 mg/kg, t1/2) of 9.9 ± 4 h. It also gave an AUC0-inf (in vivo; po, 40 mg/kg) of 88 µM·h, an AUC(0-inf) (in vivo; po, 40 mg/kg) of 88 ± 15 µM·h and an AUC(0-t) (in vivo; po, 40 mg/kg) of 79 ± 8.9 µM·h. The Cmax (in vivo; po, 40 mg/kg) was 46.1 ± 7.3 µM, the Tmax (in vivo; po, 40 mg/kg) was 0.25 h and the tlast (in vivo; po, 40 mg/kg) was 24 h. For the same molecule, the bioavailability (in vivo; po, 40 mg/kg, % F) was 57%, the bioavailability (in vivo; po, 40 mg/kg, %F) was 57 ± 10% and the concentration at 24 h (in vivo; po, 40 mg/kg, Cmin) was 0.65 ± 0.35 µM. It also gave a concentration at 0.25 h (in vivo; [6]) of 46.1 ± 8 µM, a concentration at 0.5 h (in vivo; [6]) of 28.2 ± 4.1 µM and a concentration at 1 h (in vivo; [6]) of 12.7 ± 2.7 µM. The concentration at 2 h (in vivo; [6]) was 5.4 ± 0.31 µM, the concentration at 4 h (in vivo; [6]) was 3.2 ± 0.25 µM and the concentration at 8 h (in vivo; [6]) was 2.4 ± 0.45 µM. For the same molecule, the concentration at 24 h (in vivo; [6]) was 0.64 ± 0.35 µM, the half-life (in vivo; po, 40 mg/kg, t 1/2) was 8.5 h and the half-life (in vivo; po, 40 mg/kg, t1/2) was 8.5 ± 0.24 h. The reduction in parasitemia ([2]; P. berghei mouse model, IV dosing) was “no reduction in parasitemia”, the “reduction in parasitemia / efficacy” value ([2]; P. berghei mouse model, oral dosing (20c 5 × 40 mg per kg per day)) was “no reduction in parasitemia” and the “Live/Dead and luminescence, individual mice” value ([2]; Table S1, oral 1 x daily Days 2-6, imaged Day 7, Cmpd 1 45 mg/kg, CQ 20 mg/kg) was “Dead by Day 6 and Dead by Day 7 and 1.33E+06”. For the same molecule, the “Luminescence after background subtraction AVG” value [2, 7] was 1.39E+06, the “Luminescence after background subtraction, individual mice” value [2, 7] was 9.49E+05 and 1.50E+06 and 1.72E+06 and 2.00E+06 and 7.68E+05 and the “treated mice dead by Day 7 (of 5)” value ([2]; oral 45 mg/kg/d Days 2-6) was 4. The half-life at 1 µM (in vitro) was about 0.167 h, the “% remaining at 60 min” value (in vitro; 1 h, 1 µM) was 103.9% and the “% recovery (200 μM IPP)” value [3] was 100%@2.5 μM ^c. The IC50 (P. falciparum IspD) was 47 nM and the EC50 [4] was 250 ± 70 nM.
